Test results reported in US8309718B2, “4-pyrazolyl-N-arylpyrimidin-2-amines and 4-pyrazolyl-N-heteroarylpyrimidin-2-amines as janus kinase inhibitors” (Incyte Corporation, priority 2007, dated 2012).

These molecules were tested against T1, human JAK2 (Homo sapiens, UniProt O60674) (assay: In vitro JAK kinase assay (HTRF, phosphorylation of biotinylated peptide)). Conditions: catalytic domain a.a. 828-1132, 30 μM ATP, 500 nM peptide, room temperature 1 hr; read-out: JAK-2 IC50.
T1 construct: JAK2 (a.a. 828-1132); His tag (N); made in house; host or cells: insect cells (baculovirus)
T1 sequence (O60674 828-1132): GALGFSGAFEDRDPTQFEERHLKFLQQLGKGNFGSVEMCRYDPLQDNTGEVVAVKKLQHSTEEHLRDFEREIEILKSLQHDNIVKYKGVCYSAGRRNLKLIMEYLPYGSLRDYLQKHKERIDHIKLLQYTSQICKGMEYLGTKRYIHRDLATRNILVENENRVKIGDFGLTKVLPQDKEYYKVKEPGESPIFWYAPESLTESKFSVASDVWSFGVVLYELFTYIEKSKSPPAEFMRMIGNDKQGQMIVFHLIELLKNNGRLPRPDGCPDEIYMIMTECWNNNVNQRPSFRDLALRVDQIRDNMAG
Format: biochemical
Procedure: Compounds herein were tested for inhibitory activity of JAK targets according to the following in vitro assay described in Park et al, Analytical Biochemistry 1999, 269, 94-104. The catalytic domains of human JAK1 (a.a. 837-1142), JAK2 (a.a. 828-1132) and JAK3 (a.a. 781-1124) with an N-terminal His tag were expressed using baculovirus in insect cells and purified. The catalytic activity of JAK1, JAK2 or JAK3 was assayed by measuring the phosphorylation of a biotinylated peptide. The phosphorylated peptide was detected by homogenous time resolved fluorescence (HTRF). IC50s of compounds were measured for each kinase in the reactions that contain the enzyme, ATP and 500 nM peptide in 50 mM Tris (pH 7.8) buffer with 100 mM NaCl, 5 mM DTT, and 0.1 mg/mL (0.01%) BSA. The ATP concentration in the reactions was 90 μM for JAK1, 30 μM for Jak2 and 3 μM for JAK3. Reactions were carried out at room temperature for 1 hr and then stopped with 20 μL 45 mM EDTA, 300 nM SA-APC, 6 nM Eu-Py20 in assay buffer (Perkin Elmer, Boston, Mass.). Binding to the Europium labeled antibody took place for 40 minutes and HTRF signal was measured on a Fusion plate reader (Perkin Elmer, Boston, Mass.). Certain of the above compounds were tested according to this assay.

IC50, < 100 nM:
COc1cnc(Nc2cccc(C(=O)N3CC[C@@H](O)C3)c2)nc1-c1cnn(C(CC#N)C2CC2)c1 (mixture of isomers) [Example 325, 3-cyclopropyl-3-(4-{2-[(3-{[(3R)-3-hydroxypyrrolidin-1-yl]carbonyl}phenyl)amino]-5-methoxypyrimidin-4-yl}-1H-pyrazol-1-yl)propanenitrile]
COc1cnc(Nc2cccc(C(=O)N3CC[C@H](OC)C3)c2)nc1-c1cnn(C(CC#N)C2CC2)c1 (mixture of isomers) [Example 326, 3-cyclopropyl-3-(4-{5-methoxy-2-[(3-{[(3S)-3-methoxypyrrolidin-1-yl]carbonyl}phenyl)amino]pyrimidin-4-yl}-1H-pyrazol-1-yl)propanenitrile]
COc1cnc(Nc2cccc(C(=O)N3CC[C@H](C#N)C3)c2)nc1-c1cnn(C(CC#N)C2CC2)c1 (mixture of isomers) [Example 327, (3S)-1-[3-({4-[1-(2-cyano-1-cyclopropylethyl)-1H-pyrazol-4-yl]-5-methoxypyrimidin-2-yl}amino)benzoyl]pyrrolidine-3-carbonitrile]
N#CCC(CC1CCN(C(=O)c2ccc(F)cc2F)CC1)n1cc(-c2ccnc(Nc3ccc(-n4ccnc4)cc3)n2)cn1 (racemic) [Example 1, 3-(4-(2-(4-(1H-imidazol-1-yl)phenylamino)pyrimidin-4-yl)-1H-pyrazol-1-yl)-4-(1-(2,4-difluorobenzoyl)piperidin-4-yl)butanenitrile]
N#CCC(CC1CCN(C(=O)c2ccc(F)cc2F)CC1)n1cc(-c2ccnc(Nc3ccc(N4CCNCC4)cc3)n2)cn1 (racemic) [Example 2, 4-(1-(2,4-difluorobenzoyl)piperidin-4-yl)-3-(4-(2-(4-(piperazin-1-yl)phenylamino)pyrimidin-4-yl)-1H-pyrazol-1-yl)butanenitrile]
COc1ccc(Nc2nccc(-c3cnn(C(CC#N)CC4CCN(C(=O)c5ccc(F)cc5F)CC4)c3)n2)cc1 (racemic) [Example 3, 4-(1-(2,4-difluorobenzoyl)piperidin-4-yl)-3-(4-(2-(4-methoxyphenylamino)pyrimidin-4-yl)-1H-pyrazol-1-yl)butanenitrile]
N#CCC(CC1CCN(C(=O)c2ccc(F)cc2F)CC1)n1cc(-c2ccnc(Nc3ccccc3)n2)cn1 (racemic) [Example 4, 4-(1-(2,4-difluorobenzoyl)piperidin-4-yl)-3-(4-(2-(phenylamino)pyrimidin-4-yl)-1H-pyrazol-1-yl)butanenitrile]
N#CCC(CC1CCN(C(=O)c2ccc(F)cc2F)CC1)n1cc(-c2ccnc(Nc3ccc(N4CCOCC4)cc3)n2)cn1 (racemic) [Example 5, 4-(1-(2,4-difluorobenzoyl)piperidin-4-yl)-3-(4-(2-(4-morpholinophenylamino)pyrimidin-4-yl)-1H-pyrazol-1-yl)butanenitrile]
N#CCC(CC1CCN(C(=O)c2ccc(F)cc2F)CC1)n1cc(-c2ccnc(Nc3ccc(-n4cccn4)cc3)n2)cn1 (racemic) [Example 6, 3-(4-(2-(4-(1H-pyrazol-1-yl)phenylamino)pyrimidin-4-yl)-1H-pyrazol-1-yl)-4-(1-(2,4-difluorobenzoyl)piperidin-4-yl)butanenitrile]
N#CCC(CC1CCN(C(=O)c2ccc(F)cc2F)CC1)n1cc(-c2ccnc(Nc3cccc(-c4cnco4)c3)n2)cn1 (racemic) [Example 7, 4-(1-(2,4-difluorobenzoyl)piperidin-4-yl)-3-(4-(2-(3-(oxazol-5-yl)phenylamino)pyrimidin-4-yl)-1H-pyrazol-1-yl)butanenitrile]
Cn1ccc(Nc2nccc(-c3cnn(C(CC#N)CC4CCN(C(=O)c5ccc(F)cc5F)CC4)c3)n2)n1 (racemic) [Example 8, 4-(1-(2,4-difluorobenzoyl)piperidin-4-yl)-3-(4-(2-(1-methyl-1H-pyrazol-3-ylamino)pyrimidin-4-yl)-1H-pyrazol-1-yl)butanenitrile]
N#CCC(CC1CCN(C(=O)c2ccc(F)cc2F)CC1)n1cc(-c2ccnc(Nc3ccc(Oc4ccccc4)cc3)n2)cn1 (racemic) [Example 11, 4-(1-(2,4-difluorobenzoyl)piperidin-4-yl)-3-(4-(2-(4-phenoxyphenylamino)pyrimidin-4-yl)-1H-pyrazol-1-yl)butanenitrile]
N#CCC1(n2cc(-c3ccnc(Nc4ccc(-n5cccn5)cc4)n3)cn2)CCN(C(=O)c2ccno2)CC1 (racemic) [Example 12, 2-(4-(4-(2-(4-(1H-pyrazol-1-yl)phenylamino)pyrimidin-4-yl)-1H-pyrazol-1-yl)-1-(isoxazole-5-carbonyl)piperidin-4-yl)acetonitrile]
N#CCC1(n2cc(-c3ccnc(Nc4cccc(-c5cnco5)c4)n3)cn2)CCN(C(=O)c2ccno2)CC1 (racemic) [Example 13, 2-(1-(isoxazole-5-carbonyl)-4-(4-(2-(3-(oxazol-5-yl)phenylamino)pyrimidin-4-yl)-1H-pyrazol-1-yl)piperidin-4-yl)acetonitrile]
N#CCC1(n2cc(-c3ccnc(Nc4cccc(-c5nnn[nH]5)c4)n3)cn2)CCN(C(=O)c2ccno2)CC1 (racemic) [Example 14, 2-(4-(4-(2-(3-(1H-tetrazol-5-yl)phenylamino)pyrimidin-4-yl)-1H-pyrazol-1-yl)-1-(isoxazole-5-carbonyl)piperidin-4-yl)acetonitrile]
N#CCC1(n2cc(-c3ccnc(Nc4ccc(S(=O)(=O)N5CCOCC5)cc4)n3)cn2)CCN(C(=O)c2ccno2)CC1 (racemic) [Example 15, 2-(1-(isoxazole-5-carbonyl)-4-(4-(2-(4-(morpholinosulfonyl)phenylamino)pyrimidin-4-yl)-1H-pyrazol-1-yl)piperidin-4-yl)acetonitrile]
COc1ccc(Nc2nccc(-c3cnn(C4(CC#N)CCN(C(=O)c5ccno5)CC4)c3)n2)cn1 (racemic) [Example 16, 2-(1-(isoxazole-5-carbonyl)-4-(4-(2-(6-methoxypyridin-3-ylamino)pyrimidin-4-yl)-1H-pyrazol-1-yl)piperidin-4-yl)acetonitrile]
N#CCC1(n2cc(-c3ccnc(Nc4ccc(-n5cccn5)cc4)n3)cn2)CN(S(=O)(=O)C2CC2)C1 (racemic) [Example 17, 2-(3-(4-(2-(4-(1H-pyrazol-1-yl)phenylamino)pyrimidin-4-yl)-1H-pyrazol-1-yl)-1-(cyclopropylsulfonyl)azetidin-3-yl)acetonitrile]
N#CCC(C1CCNCC1)n1cc(-c2ccnc(Nc3ccc(N4CCOCC4)cc3)n2)cn1 (racemic) [Example 22, 3-(4-(2-(4-morpholinophenylamino)pyrimidin-4-yl)-1H-pyrazol-1-yl)-3-(piperidin-4-yl)propanenitrile]
N#CCC(C1CCN(c2ncc(F)cn2)CC1)n1cc(-c2ccnc(Nc3ccc(N4CCOCC4)cc3)n2)cn1 (racemic) [Example 23, 3-(1-(5-fluoropyrimidin-2-yl)piperidin-4-yl)-3-(4-(2-(4-morpholinophenylamino)pyrimidin-4-yl)-1H-pyrazol-1-yl)propanenitrile]
CS(=O)(=O)N1CCC(C(CC#N)n2cc(-c3ccnc(Nc4ccc(N5CCOCC5)cc4)n3)cn2)CC1 (racemic) [Example 24, 3-(1-(methylsulfonyl)piperidin-4-yl)-3-(4-(2-(4-morpholinophenylamino)pyrimidin-4-yl)-1H-pyrazol-1-yl)propanenitrile]
N#CCC(C1CCN(S(=O)(=O)c2ccccc2)CC1)n1cc(-c2ccnc(Nc3ccc(N4CCOCC4)cc3)n2)cn1 (racemic) [Example 25, 3-(4-(2-(4-morpholinophenylamino)pyrimidin-4-yl)-1H-pyrazol-1-yl)-3-(1-(phenylsulfonyl)piperidin-4-yl)propanenitrile]
CC(=O)N1CCC(C(CC#N)n2cc(-c3ccnc(Nc4ccc(N5CCOCC5)cc4)n3)cn2)CC1 (racemic) [Example 26, 3-(1-acetylpiperidin-4-yl)-3-(4-(2-(4-morpholinophenylamino)pyrimidin-4-yl)-1H-pyrazol-1-yl)propanenitrile]
N#CCC(C1CCN(C(=O)c2ccccc2)CC1)n1cc(-c2ccnc(Nc3ccc(N4CCOCC4)cc3)n2)cn1 (racemic) [Example 27, 3-(1-benzoylpiperidin-4-yl)-3-(4-(2-(4-morpholinophenylamino)pyrimidin-4-yl)-1H-pyrazol-1-yl)propanenitrile]
N#CCC(C1CCCC1)n1cc(-c2ccnc(Nc3ccc(C(N)=O)cc3)n2)cn1 (racemic) [Example 33, 4-(4-(1-(2-cyano-1-cyclopentylethyl)-1H-pyrazol-4-yl)pyrimidin-2-ylamino)benzamide]
N#CCC(C1CCCC1)n1cc(-c2ccnc(Nc3ccc(-n4cccn4)cc3)n2)cn1 (racemic) [Example 34, 3-(4-(2-(4-(1H-pyrazol-1-yl)phenylamino)pyrimidin-4-yl)-1H-pyrazol-1-yl)-3-cyclopentylpropanenitrile]
